Experimental data as given in patent publication US7056940B2, “Insecticidal 3-(2,6-disubstituted phenyl)-5-[5-arylthien-2-yl]-1,2,4-triazoles” (Dow AgroSciences LLC, priority 2001, dated 2006).

Tests used:
Type in all cases: in vivo
[1] = tested on: Beet Armyworm (Spodoptera exigua); assay: Insecticidal test for beet armyworm, treated lepidopteran diet; set-up: key: A: 90–100; B: 80–89; C: 70–79; D: 60–69; E: 50–59; F: less than 50; G: Inactive; details: on diet surface, second-instar larvae, 5 days
From the text: (§1) The compounds are useful for reducing populations of insects and mites and are useful in a method of inhibiting an insect or mite population which comprises applying to a locus of the insect or mite an effective insect- or mite-inactivating amount of a compound of formula (1). The “locus” of insects or mites is a term used herein to refer to the environment in which the insects or mites live or where their eggs are present, including the air surrounding them, the food they eat, or objects which they contact. For example, insects or mites which eat or contact edible or ornamental plants can be controlled by applying the active compound to plant parts such as the seed, seedling, or cutting which is planted, the leaves, stems, fruits, grain, or roots, or to the soil in which the roots are growing. It is contemplated that the compounds might also be useful to protect textiles, paper, stored grain, seeds, domesticated animals, buildings or human beings by applying an active compound to or near such objects. The term “inhibiting an insect or mite” refers to a decrease in the numbers of living insects or mites, or a decrease in the number of viable insect or mite eggs. The extent of reduction accomplished by a compound depends, of course, upon the application rate of the compound, the particular compound used, and the target insect or mite species. At least an inactivating amount should be used. The terms “insect-inactivating amount” and “mite-inactivating amount” are used to describe the amount, which is sufficient to cause a measurable reduction in the treated insect or mite population. Generally an amount in the range from about 1 to about 1000 ppm by weight active compound is used. For example, insects and mites which can be inhibited include, but are not limited to: • Lepidoptera—Heliothis spp., Helicoverpa spp., Spodoptera spp., Mythimna unipuncta, Agrotis ipsilon, Earias spp., Euxoa auxiliaris, Trichoplusia ni, Anticarsia gemmatalis, Rachiplusia nu, Plutella xylostella, Chilo spp., Scirpophaga incertulas, Sesamia inferens, Cnaphalocrocis medinalis, Ostrinia nubilalis, Cydia pomonella, Carposina niponensis, Adoxophyes orana, Archips argyrospilus, Pandemis heparana, Epinotia aporema, Eupoecilia ambiguella, Lobesia botrana, Polychrosis viteana, Pectinophora gossypiella, Pieris rapae, Phyllonorycter spp., Leucoptera malifoliella, Phyllocnisitis citrella • Coleoptera—Diabrotica spp., Leptinotarsa decemlineata, Oulema oryzae, Anthonomus grandis, Lissorhoptrus oryzophilus, Agriotes spp., Melanotus communis, Popillia japonica, Cyclocephala spp., Tribolium spp. • Homoptera—Aphis spp., Myzus persicae, Rhopalosiphum spp., Dysaphis plantaginea, Toxoptera spp., Macrosiphum euphorbiae, Aulacorthum solani, Sitobion avenae, Metopolophium dirhodum, Schizaphis graminum, Brachycolus noxius, Nephotettix spp., Nilaparvata lugens, Sogatella furcifera, Laodelphax striatellus, Bemisia tabaci, Trialeurodes vaporariorum, Aleurodes proletella, Aleurothrixus floccosus, Quadraspidiotus perniciosus, Unaspis yanonensis, Ceroplastes rubens, Aonidiella aurantii • Hemiptera—Lygus spp., Eurygaster maura, Nezara viridula, Piezodorus guildingi, Leptocorisa varicornis • Thysanoptera—Frankliniella occidentalis, Thrips spp., Scirtothrips dorsalis • Isoptera—Reticulitermes flavipes, Coptotermes formosanus • Orthoptera—Blattella germanica, Blatta orientalis, Gryllotalpa spp. • Diptera—Liriomyza spp., Musca domestica, Aedes spp., Culex spp., Anopheles spp. • Hymenoptera—Iridomyrmex humilis, Solenopsis spp., Monomorium pharaonis, Atta spp., Pogonomyrmex spp., Camponotus spp. • Siphonaptera—Ctenophalides spp., Pulex irritans • Acarina—Tetranychus spp., Panonychus spp., Eotetranychus carpini, Phyllocoptruta oleivora, Aculus pelekassi, Brevipalpus phoenicis, Boophilus spp., Dermacentor variabilis, Rhipicephalus sanguineus, Amblyomma americanum, Ixodes spp., Notoedres cati, Sarcoptes scabiei, Dermatophagoides spp. […]

[2] = tested on: Sweetpotato Whitefly (Bemisia tabacia); assay: Insecticidal test for sweetpotato whitefly, spray on cotton plants; set-up: key: A: 90–100; B: 80–89; C: 70–79; D: 60–69; E: 50–59; F: less than 50; G: Inactive; details: 200 ppm spray, 13 days, large nymphs
Method: Insecticidal Test for Sweetpotato Whitefly (Bemisia tabacia)
Four mg of each test compound was dissolved by adding 4 mL of a 90:10 acetone:ethanol solvent mixture to the vial containing the sample compound. This solution was added to 16 mL of water containing 0.05% Tween 20 surfactant to produce 20 mL of an 200 ppm spray solution.
Five-week-old cotton plants reared in a greenhouse were stripped of all foliage except for the two uppermost true leaves that were greater than 5 cm in diameter. These plants were then placed into a laboratory colony of whiteflies for two days for oviposition by the colony females. All whiteflies were then removed from the test plants with pressurized air. The spray solution was then applied to the test plants with a hand-held syringe fitted with hollow cone nozzle. One mL spray solution was applied to each leaf top and bottom for a total of 4 mL per plant. Four replications of each test compound utilized a total of 16 mL spray solution. Plants were air dried and then placed in a holding chamber (28° C. and 60% RH) for 13 days. Compound efficacy was evaluated by counting, under an illuminated magnifying glass, the number of large nymphs (3rd–4th instar) per leaf.
Percent control based on reduction of large nymphs of a test compound compared to solution-only (no test compound) sprayed plants is reported in Tables 1–4.

[3] = tested on: Tobacco Budworm (Heliothis virescens); assay: Insecticidal test for tobacco budworm, treated cotton cotyledon leaf disc; set-up: key: A: 90–100; B: 80–89; C: 70–79; D: 60–69; E: 50–59; F: less than 50; G: Inactive; details: cotton cotyledon leaf-dip, 2nd instar larvae, 5 days
From the text: as §1

[4] = tested on: Cotton Aphid (Aphis gossypii); assay: Insecticidal test for cotton aphid, spray on infested squash cotyledons; details: 50 ppm spray, 3 days
Method: Insecticidal Test for Cotton Aphid (Aphis gossypii)
To prepare spray solutions, 1 mg of each test compound was dissolved into 1 mL of a 90:10 acetone:ethanol solvent. This 1 mL of chemical solution was added to 19 mL of water containing 0.05% Tween 20 surfactant to produce a 50 ppm spray solution.
Squash cotyledons were infested with cotton aphid (all life stages) 16–20 hours prior to application of spray solution. The solution was sprayed on both sides of each infested squash cotyledon (0.5 mL×2 each side) with a sweeping action until runoff. The plants were allowed to air dry and held for 3 days in a controlled room at 26° C. and 40% RH after which time the test was graded. Grading was by actual count using a dissecting microscope and comparison of test counts to the untreated check. Results are given in Tables 1–4 as percent control based on population reduction versus the untreated.

[5] = tested on: Cabbage Looper (Trichoplusia ni); assay: Insecticidal test for cabbage looper, treated cabbage leaf disc; set-up: key: A: 90–100; B: 80–89; C: 70–79; D: 60–69; E: 50–59; F: less than 50; G: Inactive; details: cabbage leaf-dip, 2nd instar larvae, 5 days
From the text: as §1

[6] = tested on: Two-spotted Spider Mite (Tetranychus urticae); assay: Insecticidal test for two-spotted spider mite, ovicide method; set-up: key: A: 90–100; B: 80–89; C: 70–79; D: 60–69; E: 50–59; F: less than 50; G: Inactive; details: cotton leaf discs, 6 days
Method: Insecticidal Test for Two-spotted Spider Mite (Tetranychus urticae)
Ten adult female two-spotted spider mites were placed on eight 2.2 cm leaf discs of cotton leaf, allowed to oviposit over 24 hours, and thereafter removed. […] Discs were placed on an agar substrate and held at 24° C. and 90% RH for 6 days.

Row | Compound | BAW: activity at 400 ppm against beet armyworm (% control rating) [1] | WF: activity at 200 ppm against whitefly (% control rating) [2] | TBW: activity at 400 ppm against tobacco budworm (% control rating) [3] | CA: activity at 50 ppm against cotton aphid (% control rating) [4] | CL: activity at 400 ppm against cabbage looper (% control rating) [5] | SM: activity against two-spotted spider mite (% control rating) [6]
1 | Cn1nc(-c2c(F)cccc2Cl)nc1-c1sc(-c2ccc(Br)cc2)c(Cl)c1Cl | A (90–100) | E (50–59) | G | C (70–79) | A (90–100) | G
2 | Cn1nc(-c2c(F)cccc2Cl)nc1-c1sc(-c2ccc(Br)cc2)cc1Cl | A (90–100) | G | A (90–100) | B (80–89) | A (90–100) | A (90–100)
3 | Cc1cc(-c2cccc(OC(F)(F)F)c2)sc1-c1nc(-c2c(F)cccc2Cl)nn1C | G | F (less than 50) | G | B (80–89) | A (90–100) | A (90–100)
4 | Cc1cc(-c2ccc(F)cc2)sc1-c1nc(-c2c(F)cccc2Cl)nn1C | D (60–69) | G | F (less than 50) | B (80–89) | A (90–100) | A (90–100)
5 | Cc1cc(-c2ccc(Cl)c(F)c2)sc1-c1nc(-c2c(F)cccc2Cl)nn1C | A (90–100) | G | B (80–89) | A (90–100) | A (90–100) | A (90–100)
6 | Cc1cc(-c2ccc(Cl)cc2F)sc1-c1nc(-c2c(F)cccc2Cl)nn1C | A (90–100) | G | F (less than 50) | C (70–79) | A (90–100) | A (90–100)
7 | Cc1cc(-c2cccc(C(F)(F)F)c2F)sc1-c1nc(-c2c(F)cccc2Cl)nn1C | A (90–100) | G | D (60–69) | D (60–69) | A (90–100) | A (90–100)
8 | Cc1cc(-c2ccc3c(c2)COC3)sc1-c1nc(-c2c(F)cccc2Cl)nn1C | B (80–89) | G | G | D (60–69) | A (90–100) | C (70–79)
9 | Cc1cc(-c2ccc(OC(C)C)cc2)sc1-c1nc(-c2c(F)cccc2Cl)nn1C | D (60–69) |  | G | D (60–69) | B (80–89) | A (90–100)
10 | Cc1c(-c2nc(-c3c(F)cccc3Cl)nn2C)csc1-c1ccc(SCF)cc1 | B (80–89) | F (less than 50) | G | B (80–89) | G | 
11 | Cc1sc(-c2ccc(C(F)(F)F)cc2F)c(C)c1-c1nc(-c2c(F)cccc2Cl)nn1C | A (90–100) |  | G | B (80–89) | A (90–100) | 
